According to patent publication US20130023573A1, “ALPHA-2 […] TREATING VISUAL DISORDERS MEDIATED BY CENTRAL VISUAL P[…] THE EYE” (priority 2011, published 2013):

Experiments:
[1] = tested on: rat visual cortex slices; experiment: Long-term potentiation in visual cortex slice; format: cell-based; conditions: LTP at 30 min after induction; for threshold dose for dose-dependent facilitation of LTP: rat visual cortex slices, drug infused 20 min before theta burst stimulation
Protocol: Following decapitation of the anesthetized rat, the brain was rapidly removed and immersed in ice-cold artificial cerebrospinal fluid (ACSF) containing (in mM) NaCl 124, KCl 3, KH2PO4 1.25, CaCl2 3.4, MgSO4 2.5, NaHCO3 26, and D-glucose 10. A block of visual cortex was created by removing the frontal ⅔ portion of the brain and the cerebellum. Coronal visual cortex slices of 350 μm thick were prepared from young adult (200-300 g) male Sprague-Dawley rats using a vibratome (VT 1000 S; Leica). The slices were maintained in an interface recording chamber perfused with preheated ACSF. Slices were continuously perfused with this solution at a rate of 1.00-1.50 ml/min while the surface of the slices was exposed to warm, humidified […] and maintained at 31±1° C. Visual cortex slices were allowed to recover for 1 hr before recording began. A single stimulating and recording electrode was placed in layer IV and III, respectively, to generate and record field excitatory postsynaptic potentials (fEPSPs). Pulses were administered at 0.05 Hz using a current that produced a fEPSP that is 50% of the maximum spike free response. An input-output (IO) curve was done to determine the stimulation needed to achieve a stable baseline. Following a 15 min stable baseline recording period, a train of 5 theta bursts (each burst containing four pulses at 100 Hz with an inter-burst interval of 200 ms) was delivered to the slice. This was repeated 2 additional times with a 1 minute inter-train interval, and the level of LTP was recorded for at least 30 min. Changes in amplitude of the synaptic response were used to measure the extent of LTP, since the amplitude was determined to be the more consistent parameter than the slope of the response. Control LTP values were obtained from slices not treated with drug. Different slices were used to study drug effects on LTP. Compound 4-bromo-N-(imidazolidin-2-ylidene)-1H-benzimidazol-5-amine or (S)-(3-(1-(1H-imidazol-4-yl)ethyl)-2-methylphenyl)methanol) was infused after 15 min baseline recording for a duration of 20 minutes followed by LTP induction. Drug washout began 5 minutes after tetanization. Recording of the amplitude before, during, and after drug infusion was continuously done at 0.05 Hz. Statistical comparisons were done with LTP values recorded at 30 minutes after induction for drug-treated vs control slices (non-paired t-test).
In brief, brain slices from primary visual cortex were prepared and recording of evoked field responses was done as described in the ‘general procedure’ section. A typical LTP run began with establishing a stable baseline, then treatment for 20 min with 4-bromo-N-(imidazolidin-2-ylidene)-1H-benzimidazol-5-amine followed by LTP induction via brief high-frequency theta burst stimulation (TBS) and drug washout 5 min after TBS, and ended after monitoring the amount of LTP for at least 30 min. Control LTP was measured in a group of separate slices within the same chamber infused with aCSF. The amount of LTP present at 30 min after induction was used to compare drug effects at different concentrations relative to the control group. […] The percent increase in LTP was shown relative to the pre-LTP baseline for each condition.
The percent increase in LTP was shown relative to the pre-LTP baseline for each condition.

[2] = rats, after oral dose of brimonidine tartrate (Acheampong et al., Xenobiotica 2007); cited from earlier work

Row | SMILES | LTP compared to control slices ([1]; 100 nM) | LTP compared to control slices ([1]; 300 nM) | threshold dose for dose-dependent facilitation of LTP [1] [nM] | LTP compared to control slices ([1]; 3 nM) | LTP compared to control slices ([1]; 30 nM) | amount found in urine [2]
1 | Cc1c(CO)cccc1[C@H](C)c1c[nH]cn1 [(S)-(3-(1-(1H-imidazol-4-yl)ethyl)-2-methylphenyl)methanol] | significantly facilitated | significantly facilitated | 100 | – | – | –
2 | Brc1c(N=C2NCCN2)ccc2[nH]cnc12 [4-bromo-N-(imidazolidin-2-ylidene)-1H-benzimidazol-5-amine] | – | significantly facilitated | 3 | significantly facilitated | significantly facilitated | trace amounts
